Measured values as given in patent EP3061351B1, “Food product for young subjects” (Dopharma Research B.V., priority 2015, dated 2016).

Legend:
[1] = system: streptococci; conditions: among naturally present medium and long chain free fatty acids, Kabara et al. 1972; cited from earlier work
[2] = system: Caco-2 cells; test: Interleukin-8 production of DON-challenged Caco-2 cells (ELISA); assay type: cell-based; conditions: apical side, 24 h incubation with 4.2 µM DON, digests 1:100 added 2 hours before DON
Protocol: (§1) Caco-2 cells were cultured in minimal essential media (MEM), supplemented with 10% FBS, 1% non essential amino acids (NEAA), 1% pyruvate, penicillin (100 U/mL) and streptomycin (100 µg/mL), all from Gibco (Life Technologies Europe, Bleiswijk, The Netherlands). Experiments with Caco-2 cells were conducted with cells grown on sterile 0.3 cm2 transwell with 0.4 µm pore polyester membrane inserts placed in a 24-well plate (Corning, Sigma-Aldrich, The Netherlands), if not stated otherwise. The cells were seeded at a density of 1 * 10^5 cells per insert. The cell culture plates were incubated at 37°C, in a humidified atmosphere with 5% CO2. […] The cell culture was regularly tested and found to be free of mycoplasma contamination.
Caco-2 and IPEC-J2 cells were grown on inserts and in 12 well plates respectively. Confluent layers of cells were incubated with 1:100 dilutions of digests 2 hours prior to addition of DON. Cells were then incubated in the presence of both digests and DON for 24 hours prior to analysis. TEER was measured as described above. Interleukin-8 (IL-8) was analyzed using porcine CXCL8/IL-8 DuoSet ELISA kit (DY535, R&D systems Abbingdon, UK) according to the manufacturer's protocol. Apical an basolateral supernatant of transwell plates were used for analysis. Samples were diluted ten times in PBS. […]

[3] = 4.2 µM for 24 hours, Akbari et al.; cited from earlier work
[4] = system: IPEC-J2 cells; test: MTT assay, cytotoxicity of DON; assay type: cell-based, porcine; conditions: 4.2 µM DON, confirmation of the literature, data not shown
Protocol: Intestinal porcine epithelial cells (IPEC-J2 passages 83 - 87) were a kind gift from prof. R. Pieters (IRAS, Utrecht University, The Netherlands). IPEC-J2 cells were cultured in 25 cm^2 cell culture flasks (Greiner Bio-One, Alphen a/d Rijn, The Netherlands) in Dulbecco's modified Eagle's medium (DMEM)/ Ham's F12 supplemented with 10% fetal bovine serum, penicillin (100 U/mL) and streptomycin (100 µg/mL) (Gibco, Life Technologies Europe, Bleiswijk, The Netherlands). IPEC-J2 cells were used for MTT analysis.
To confirm lack of cytotoxicity at 4.2 µM of DON as published previously by Akbari et al. (The FASEB Journal […]; 28, 2414-2429), an MTT assay using IPEC-J2 cells was performed in a 96-well plate. The MTT assay assesses cell viability by analyzing the capability of cells to reduce the tetrazolium dye MTT (3-(4,5-dimethylthiazol-2-yl)-2.5-diphenyltetrazolium bromide, Sigma Aldrich, Zwijndrecht, The Netherlands) into the purple colored formazan. Using colorimetric analysis, the cell viability is quantified. For the MTT assay, a 5 mg/ml MTT-stock was prepared in PBS and this was diluted six times in 10% FBS in medium. Supernatant was aspirated and cells were incubated with 100 µl of the MTT solution. This was incubated for 3 hours in the incubator. […] Plate was shaken at low intensity for ten minutes and absorption at 560 nm was measured using spectrophotometer (Fluostar Omega, BMG Labtech).

[5] = concentration of 4.2 µM, Akbari et al.; cited from earlier work
[6] = system: Caco-2 cells; test: TEER measurements of Caco-2 monolayer challenged with DON; assay type: cell-based; conditions: 4.2 µM DON, 24 hours
Protocol: as §1
Caco-2 cells were cultured as described above. The integrity of the monolayer was evaluated on a regular basis using the first two 24-well plates during 21 days. To avoid contamination, in the next well plates, TEER was only measured right before the start of the experiment. On average, TEER values for untreated cells were 550 ± 24 Ω˙cm2. […]
Caco-2 and IPEC-J2 cells were grown on inserts and in 12 well plates respectively. […] TEER was measured as described above. Interleukin-8 (IL-8) was analyzed using porcine CXCL8/IL-8 DuoSet ELISA kit (DY535, R&D systems Abbingdon, UK) according to the manufacturer's protocol. […]

SMILES	activity against streptococci [1]	IL8 production [2] [pg/mL]	TEER reduction [3] [%]	cytotoxicity (MTT assay) [4]	direct cytotoxicity [5]	TEER decrease as compared to control [6] [%]
CCCCCC/C=C\CCCCCCCC(=O)O [palmitoleic acid]	among the most active free fatty acids	–	–	–	–	–
CC1=C[C@H]2O[C@@H]3[C@H](O)C[C@](C)([C@@]2(CO)[C@H](O)C1=O)[C@]31CO1 [DON, Deoxynivalenol]	–	121.7	~80	not cytotoxic	not cytotoxic	15
CCCCCCCCCCCC(=O)O [lauric acid]	among the most active free fatty acids	–	–	–	–	–
